Assays:
[1] = biological target: NAMPT (Homo sapiens, UniProt P43490); assay: TR-FRET Binding Assay of NAMPT with PRPP; conditions: with 200 μM PRPP and 2.5 mM ATP; 2 nM NAMPT, 2 nM probe, 16 hours equilibration
In short: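 Run in the presence of substrates (200 μM PRPP, 2.5 mM ATP) with final 2 nM NAMPT, 2 nM probe, 1 nM Tb-anti-His antibody and 2% DMSO. Mixtures equilibrated 16 h before TR-FRET measurement so test compounds could be enzymatically modified.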

[2] = biological target: NAMPT (human, recombinant, C-terminally His-tagged) (Homo sapiens, UniProt P43490); assay: Time-Resolved Fluorescence Resonance Energy Transfer (TR-FRET) Binding Assay of NAMPT; conditions: without substrates; 6.8 nM NAMPT, 200 nM probe, 3 hours equilibration
Sequence of NAMPT (human, recombinant, C-terminally His-tagged) (P43490 whole entry): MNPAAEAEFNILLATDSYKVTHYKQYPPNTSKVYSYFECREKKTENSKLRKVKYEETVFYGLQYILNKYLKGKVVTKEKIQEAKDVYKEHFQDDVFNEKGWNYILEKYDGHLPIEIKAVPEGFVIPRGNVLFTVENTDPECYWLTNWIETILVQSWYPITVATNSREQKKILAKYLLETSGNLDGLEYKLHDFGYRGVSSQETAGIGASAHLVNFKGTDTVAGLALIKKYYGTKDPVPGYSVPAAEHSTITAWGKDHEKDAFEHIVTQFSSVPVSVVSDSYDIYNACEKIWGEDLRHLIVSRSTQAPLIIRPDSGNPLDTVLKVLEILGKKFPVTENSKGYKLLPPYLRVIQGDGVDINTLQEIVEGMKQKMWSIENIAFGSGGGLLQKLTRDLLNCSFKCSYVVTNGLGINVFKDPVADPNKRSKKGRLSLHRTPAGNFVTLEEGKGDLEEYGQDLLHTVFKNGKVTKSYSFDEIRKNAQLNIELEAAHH
In short: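 Probe displacement by compound was measured with 6.8 nM NAMPT, 200 nM Oregon Green 488-conjugated nicotinamide-competitive inhibitor probe and 1 nM Tb-anti-His antibody in 50 mM HEPES pH 7.5, 100 mM NaCl, 10 mM MgCl2, 1 mM DTT, 1% glycerol, 2% DMSO (final). After 3 h at room temperature, TR-FRET was read; IC50 from four-parameter logistic fit.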

[3] = tested on: PC3 cells; assay: NAMPT Cell Proliferation Assay; type: cell-based; conditions: Homo sapiens, PC-3, 120 h, 5 days incubation, cell viability by Cell Titer Glo
In short: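 IC50 values derive from sigmoidal dose-response fits of percent inhibition of PC3 viability, measured by luminescence after 5 days of compound treatment. Cells (500/well, RPMI containing 10% heat-inactivated FBS) are allowed to attach overnight, and compounds are tested at 10-fold dilutions between 10 μM and 1×10^−5 μM.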

Sequence of NAMPT (P43490 whole entry): as above

Compound	IC50 [1]	IC50 [2]	IC50 [3]
CC(=O)N1CCC(c2ccc(C(=O)NCc3ccn4ccnc4c3)s2)CC1 [Example 258, 5-(1-acetylpiperidin-4-yl)-N-(imidazo[1,2-a]pyridin-7-ylmethyl)thiophene-2-carboxamide]	0.558 nM	113 nM	32.5 nM
O=C(NCc1ccn2ccnc2c1)c1ccc(C2CCN(C(=O)CC(F)(F)F)CC2)cc1 [Example 504, N-(imidazo[1,2-a]pyridin-7-ylmethyl)-4-[1-(3,3,3-trifluoropropanoyl)piperidin-4-yl]benzamide]	0.361 nM	185 nM	15.4 nM
CCOCC(=O)N1CC=C(c2ccc(NC(=O)Nc3ccc4nccn4c3)cc2)CC1 [Example 31, 1-{4-[1-(ethoxyacetyl)-1,2,3,6-tetrahydropyridin-4-yl]phenyl}-3-imidazo[1,2-a]pyridin-6-ylurea]	0.311 nM	739 nM	107 nM
COCCNC(=O)N(C[C@H]1CCCO1)c1ncc(C(=O)NCc2ccc3nccn3c2)s1 [Example 153, N-(imidazo[1,2-a]pyridin-6-ylmethyl)-2-{[(2-methoxyethyl)carbamoyl][(2R)-tetrahydrofuran-2-ylmethyl]amino}-1,3-thiazole-5-carboxamide]	1.88 nM	118 nM	3.73 nM
CCCn1cc(-c2ccc(C(=O)NCc3ccn4ccnc4c3)s2)cn1 [Example 293, N-(imidazo[1,2-a]pyridin-7-ylmethyl)-5-(1-propyl-1H-pyrazol-4-yl)thiophene-2-carboxamide]	0.169 nM	27.3 nM	7.74 nM
CC(C)C(=O)N1CCC(c2ccc(C(=O)NCc3ccn4ccnc4c3)o2)CC1 [Example 736, N-(imidazo[1,2-a]pyridin-7-ylmethyl)-5-[1-(2-methylpropanoyl)piperidin-4-yl]furan-2-carboxamide]	0.73 nM	3090 nM	8360 nM
O=C(NCc1ccn2ccnc2c1)c1ccc(C2CN(S(=O)(=O)c3ccccc3)C2)cc1 [Example 569, N-(imidazo[1,2-a]pyridin-7-ylmethyl)-4-[1-(phenylsulfonyl)azetidin-3-yl]benzamide]	0.669 nM	217 nM	226 nM
O=C(NCc1ccn2ccnc2c1)c1cnc(C2CCN(S(=O)(=O)c3ccccc3)C2)s1 (stereo not drawn) [Example 752, N-(imidazo[1,2-a]pyridin-7-ylmethyl)-2-[1-(phenylsulfonyl)pyrrolidin-3-yl]-1,3-thiazole-5-carboxamide]	0.77 nM	5190 nM	6660 nM
CC(C)CCNC(=O)c1ccc(C(=O)NCc2ccc3nccn3c2)cc1 [Example 358, N-(imidazo[1,2-a]pyridin-6-ylmethyl)-N′-(3-methylbutyl)benzene-1,4-dicarboxamide]	2.19 nM	1840 nM	2260 nM
O=C(NCc1ccn2ccnc2c1)c1ccc(O[C@H]2CCN(C(=O)CC3CCOCC3)C2)cc1 [Example 343, N-(imidazo[1,2-a]pyridin-7-ylmethyl)-4-{[(3S)-1-(tetrahydro-2H-pyran-4-ylacetyl)pyrrolidin-3-yl]oxy}benzamide]	0.456 nM	> 10000 nM	6530 nM
CC(C)(C)OC(=O)N1CC[C@H](Oc2ccc(NC(=O)NCc3ccn4ccnc4c3)cc2)C1 [Example 291, tert-butyl (3S)-3-(4-{[(imidazo[1,2-a]pyridin-7-ylmethyl)carbamoyl]amino}phenoxy)pyrrolidine-1-carboxylate]	0.449 nM	159 nM	26.1 nM
CC(C)C(C)C(=O)N1CCC(c2ccc(C(=O)NCc3ccn4ccnc4c3)s2)C1 (stereo not drawn) [Example 800, 5-[1-(2,3-dimethylbutanoyl)pyrrolidin-3-yl]-N-(imidazo[1,2-a]pyridin-7-ylmethyl)thiophene-2-carboxamide]	0.925 nM	82.1 nM	6.21 nM
O=C(CC1CCCC1)Nc1ccc(C(=O)NCc2cn3ccnc3cn2)cc1 [Example 679, 4-[(cyclopentylacetyl)amino]-N-(imidazo[1,2-a]pyrazin-6-ylmethyl)benzamide]	1.74 nM	22.8 nM	10.9 nM
CCS(=O)(=O)N1CC(c2ccc(C(=O)NCc3ccn4ccnc4c3)cc2)C1 [Example 567, 4-[1-(ethylsulfonyl)azetidin-3-yl]-N-(imidazo[1,2-a]pyridin-7-ylmethyl)benzamide]	1.11 nM	403 nM	237 nM
O=C(Nc1ccc(C2=CCN(C(=O)C3CCS(=O)(=O)CC3)CC2)cc1)Nc1ccc2nccn2c1 [Example 37, 1-(4-{1-[(1,1-dioxidotetrahydro-2H-thiopyran-4-yl)carbonyl]-1,2,3,6-tetrahydropyridin-4-yl}phenyl)-3-imidazo[1,2-a]pyridin-6-ylurea]	0.309 nM	129 nM	34.7 nM
O=C(NCc1ccn2ccnc2c1)c1ccc(C(=O)N2CCCCC2)cc1 [Example 566, N-(imidazo[1,2-a]pyridin-7-ylmethyl)-4-(piperidin-1-ylcarbonyl)benzamide]	216 nM	> 10000 nM	> 10000 nM
O=C(NCc1ccn2ccnc2c1)Nc1ccc(C2CCN(C(=O)c3ccccc3)C2)cc1 (stereo not drawn) [Example 383, 1-[4-(1-benzoylpyrrolidin-3-yl)phenyl]-3-(imidazo[1,2-a]pyridin-7-ylmethyl)urea]	0.225 nM	49.5 nM	13.3 nM

The next lines start with the values.

IC50 [1]	IC50 [2]	IC50 [3]	Compound
0.399 nM	1470 nM	127 nM	CC[C@H](C)C(=O)N1CC[C@@H](Oc2ccc(C(=O)NCc3ccn4ccnc4c3)cc2)C1 [Example 495, N-(imidazo[1,2-a]pyridin-7-ylmethyl)-4-({(3R)-1-[(25)-2-methylbutanoyl]pyrrolidin-3-yl}oxy)benzamide]
1.19 nM	154 nM	36.1 nM	CC(C)S(=O)(=O)N1CCC(c2ccc(C(=O)NCc3ccn4ccnc4c3)cc2)CC1 [Example 683, N-(imidazo[1,2-a]pyridin-7-ylmethyl)-4-[1-(propan-2-ylsulfonyl)piperidin-4-yl]benzamide]
0.621 nM	13.7 nM	5.82 nM	O=C(NCc1ccn2ccnc2c1)Nc1ccc(O[C@@H]2CCN(C(=O)c3ccccc3Cl)C2)cc1 [Example 695, 1-(4-{[(3R)-1-(2-chlorobenzoyl)pyrrolidin-3-yl]oxy}phenyl)-3-(imidazo[1,2-a]pyridin-7-ylmethyl)urea]
34.1 nM	6040 nM	> 10000 nM	CC(C)(C)OC(=O)N1CCC(c2ccc(C(=O)Nc3ccn4ccnc4c3)cc2)CC1 [Example 322, tert-butyl 4-[4-(imidazo[1,2-a]pyridin-7-ylcarbamoyl)phenyl]piperidine-1-carboxylate]
0.292 nM	56.1 nM	24.2 nM	CCn1cc(-c2ccc(C(=O)NCc3ccn4ccnc4c3)s2)cn1 [Example 295, 5-(1-ethyl-1H-pyrazol-4-yl)-N-(imidazo[1,2-a]pyridin-7-ylmethyl)thiophene-2-carboxamide]
0.476 nM	386 nM	53.8 nM	O=C(NCCCCC1CCN(C(=O)C2CCCC2)CC1)Nc1ccc2nccn2c1 [Example 68, 1-{4-[1-(cyclopentylcarbonyl)piperidin-4-yl]butyl}-3-imidazo[1,2-a]pyridin-6-ylurea]
0.424 nM	1250 nM	978 nM	CC(C)C(=O)N1CCC(Oc2ccc(C(=O)NCc3ccn4ccnc4c3)cc2)CC1 [Example 412, N-(imidazo[1,2-a]pyridin-7-ylmethyl)-4-{[1-(2-methylpropanoyl)piperidin-4-yl]oxy}benzamide]
0.253 nM	388 nM	61.2 nM	CC(C)OCC(=O)N1CCC(Oc2ccc(NC(=O)NCc3ccn4ccnc4c3)cc2)CC1 [Example 446, 1-(imidazo[1,2-a]pyridin-7-ylmethyl)-3-[4-({1-[(propan-2-yloxy)acetyl]piperidin-4-yl}oxy)phenyl]urea]
0.62 nM	598 nM	142 nM	O=C(NCc1ccn2ccnc2c1)c1ccc(C2CCN(C(=O)c3cccnc3)C2)cc1 (stereo not drawn) [Example 609, N-(imidazo[1,2-a]pyridin-7-ylmethyl)-4-[1-(pyridin-3-ylcarbonyl)pyrrolidin-3-yl]benzamide]
0.282 nM	31.6 nM	36.7 nM	O=C(CC1CCCC1)Nc1ccc(NC(=O)Nc2ccc3nccn3c2)cc1 [Example 3, 2-cyclopentyl-N-{4-[(imidazo[1,2-a]pyridin-6-ylcarbamoyl)amino]phenyl}acetamide]
0.234 nM	486 nM	3.91 nM	COCCC(=O)N(CC1CCCO1)c1ncc(C(=O)NCc2ccn3ccnc3c2)s1 (stereo not drawn) [Example 121, N-(imidazo[1,2-a]pyridin-7-ylmethyl)-2-[(3-methoxypropanoyl)(tetrahydrofuran-2-ylmethyl)amino]-1,3-thiazole-5-carboxamide]
0.231 nM	62.7 nM	5.1 nM	O=C(NCc1ccn2ccnc2c1)c1ccc(C2CCN(C(=O)C3CCOC3)CC2)s1 (stereo not drawn) [Example 261, N-(imidazo[1,2-a]pyridin-7-ylmethyl)-5-[1-(tetrahydrofuran-3-ylcarbonyl)piperidin-4-yl]thiophene-2-carboxamide]

From patent publication US9187472B2 (AbbVie Inc., priority 2012, dated 2015)
